Columns and labels:
[1] = system: breast cancer cell lines; assay: NCI60 Human Tumor Cell Lines Screen, breast cancer lines; format: cell-based; details: most of the breast cancer cell lines, read-out: Percentage of Growth Inhibition (PGI)
Procedure: (§1) The in vitro anti-cancer screening was performed through the NCI60 Human Tumor Cell Lines Screen, provided by the Developmental Therapeutics Program of the National Cancer Institute (NCI, Bethesda, United States). A single dose of 10 µM of each compound is tested in the whole NCI60 cell panel. More details about the NCI60 screen methods are reported on the NCI website (https://dtp.cancer.gov ).

[2] = system: SK-MEL28; assay: Antiproliferative assay (MTT), SK-MEL28; format: cell-based; details: Homo sapiens, SK-MEL-28, 96 h, read-out: CC50 SK-MEL28
Procedure: (§2) Cell lines were purchased from American Type Culture Collection (ATCC). The absence of mycoplasma contamination was checked periodically by the Hoechst staining method. Exponentially growing leukemia and lymphoma cells were seeded at 1 × 10^5 cells/ml in 96 well plates in RPMI-1640 medium, supplemented with 10% fetal bovine serum, 100 units/ml penicillin G, and 100 μg/ml streptomycin, and incubated at 37°C in a humidified, 5% CO2 atmosphere in the absence or presence of serial dilutions of test compounds. Cell viability was determined after 96 h at 37°C by the 3-(4,5-dimethylthiazol-2-yl)-2,5-diphenyl-tetrazolium bromide (MTT) method. Activity against solid-tumor derived cells was evaluated in exponentially growing cultures seeded at 5 × 10^4 cells/ml and allowed to adhere for 16 h to culture plates before the addition of the drugs. Cell viability was determined by the MTT method 4 days later. Vincristine and doxorubicin were used as reference drugs.
(§3) The extent of cell growth/viability and viral multiplication, at each drug concentration tested, were expressed as percentage of untreated controls. Concentrations resulting in 50% inhibition (CC50 or EC50) were determined by linear regression analysis.

[3] = system: SK-MES 1 cells; assay: Apoptosis assay (Annexin V/PI, flow cytometry); format: cell-based, human; details: 96 h
Procedure: 3b compound was selected as lead and employed in our assay. Human lung cancer cells (SK-MES 1) were seeded at the density of 8 × 10^5 cells/ml in 6-well plates (Corning, United States) with a complete medium (described in cell culture section). After overnight incubations, the cells were treated with or without different concentrations of 3b for 96 h. Cells were then labeled with Annexin V and PI as previously described ([Ibba et al., 2021]). Stained cells were then analyzed by flow cytometry, measuring the fluorescence emission at 530 and 620 nm using 488 nm excitation laser (MoFloAstrios EQ, Beckman Coulter). Cell apoptosis was analyzed using Software Summit Version 6.3.1.1, Beckman Coulter.

[4] = system: OVCAR-4; assay: NCI60 Human Tumor Cell Lines Screen, OVCAR-4; format: cell-based; details: OVCAR-4 ovarian cancer cell line, read-out: Percentage of Growth Inhibition (PGI)
Procedure: as §1

[5] = system: DU145; assay: Antiproliferative assay (MTT), DU145; format: cell-based; details: Homo sapiens, DU-145, 96 h, read-out: CC50 DU145
Procedure: as §2, §3

[6] = system: CCRF-SB; assay: Antiproliferative assay (MTT), CCRF-SB; format: cell-based; details: Homo sapiens, 96 h, read-out: CC50 CCRF-SB
Procedure: as §2, §3

[7] = system: SK-MES1; assay: Antiproliferative assay (MTT), SK-MES1; format: cell-based; details: Homo sapiens, SK-MES-1, 96 h, read-out: CC50 SK-MES1
Procedure: as §2, §3

[8] = system: prostate cancer cell lines; assay: NCI60 Human Tumor Cell Lines Screen, prostate cancer lines; format: cell-based; details: the two prostate cancer cell lines
Procedure: as §1

[9] = system: HeLa; assay: Antiproliferative assay (MTT), HeLa; format: cell-based; details: Homo sapiens, 96 h, read-out: CC50 HeLa
Procedure: as §2, §3

[10] = system: WIL-2NS; assay: Antiproliferative assay (MTT), WIL-2NS; format: cell-based; details: Homo sapiens, WIL2-NS, 96 h, read-out: CC50 WIL-2NS
Procedure: as §2, §3

[11] = system: CCRF-CEM; assay: Antiproliferative assay (MTT), CCRF-CEM; format: cell-based, human; details: for CC50: Homo sapiens, CCRF-CEM, 96 h, read-out: CC50 CCRF-CEM
Procedure: as §2, §3

[12] = system: panel of 60 human tumor cell lines; assay: NCI60 Human Tumor Cell Lines Screen, whole panel; format: cell-based; details: 10 μM, of the 60 cell lines
Procedure: as §1

[13] = Antiproliferative assay (MTT), CRL 7065 control fibroblasts; format: cell-based, human; details: MTT; human foreskin fibroblasts, non-tumor control; read-out: CC50 CRL 7065
Procedure: as §2, §3

[14] = Cytotoxicity in Vero-76 cell-line (MTT); format: cell-based; details: monkey (Cercopithecus aethiops), Vero-76 cells (mock-infected), mock-infected Vero-76 cells
Procedure: Vero-76 cells were seeded in 96-well plates at an initial density of 5 × 10^5 cells/ml, in Dulbecco’s Modified Eagle Medium (D-MEM) with L-glutamine and 25 mg/L kanamycin, supplemented with 10% FBS. Cell cultures were then incubated at 37°C in a humidified and 5% CO2 atmosphere, in the absence or presence of serial dilutions of test compounds. The test medium used for the cytotoxic assay as well as for antiviral assay contained 1% of the appropriate serum. Cell viability was determined after 48–96 h at 37°C by MTT method for Vero-76 ([Pauwels et al., 1988]).
as §3

[15] = system: Coxsackievirus B5 (CV-B5); assay: Plaque reduction assay, CV-B5 in Vero-76 monolayers; format: cell-based; details: Enterovirus B
[16] = system: Poliovirus type-1 (Sb-1); assay: microbe, parasite or virus in culture; format: cell-based; details: Enterovirus C, Vero 76, read-out: EC50, plaque reduction Sb-1

## O=C(CCCC(=O)Nc1ccc(-n2nnc3cc(Cl)c(Cl)cc32)cc1)Nc1ccc(-n2nnc3cc(Cl)c(Cl)cc32)cc1 [Compound 3b, N ^1,N ^5-Bis(4-(5,6-Dichloro-1H-Benzo[d][1,2,3]Triazol-1-yl)phenyl)glutaramide]
[1]
  inhibition at 10 µM: 48 to 81%
[2]
  CC50: 6.2 ± 1.3 µM
[3]; 7μM
  % Early apoptotic cells: 21.4 ± 12.32%
  % Late apoptotic cells: 10.5 ± 0.67%
  % Live cells: 63.8 ± 1.1%
  % Necrotic cells: 4.3 ± 0.74%
[3]; 20μM
  % Early apoptotic cells: 28.5 ± 4.63%
  % Late apoptotic cells: 11.1 ± 2.08%
  % Live cells: 54.8 ±4.9%
  % Necrotic cells: 5.6 ±1.74%
[3]; 7 µm
  apoptotic cells: 32%
[3]; 20 µm
  apoptotic cells: 40%
[4]
  inhibition at 10 µM: 106%
[5]
  CC50: 5.1 µM
[6]
  CC50: 0.35 ± 0.07 µM
[7]
  CC50: 6.8 ± 3.5 µM
[8]; 10 μM
  Percentage of Growth Inhibition (PGI): 66%
[8]; Homo sapiens, read-out: Percentage of Growth Inhibition (PGI)
  inhibition at 10 µM: 80%
[9]
  CC50: 7.1 ± 2.7 µM
[10]
  CC50: > 100 µM
[11]
  CC50: 0.5 ± 0.1 µM
[12]
  number of cell lines with PGI higher than 50%: 29
[13]
  CC50 at 96 h: 0.75 ± 0.05 µM

## O=C(/C=C/C(=O)Nc1ccc(-n2nnc3cc(Cl)c(Cl)cc32)cc1)Nc1ccc(-n2nnc3cc(Cl)c(Cl)cc32)cc1 [Compound 3d, N ^1 ,N ^4-Bis(4-(5,6-Dichloro-1H-Benzo[d][1,2,3]Triazol-1-yl)phenyl)fumaramide]
[2]
  CC50: > 100 µM
[5]
  CC50: > 100 µM
[6]
  CC50: 7.9 ± 0.9 µM
[7]
  CC50: > 100 µM
other
  melting point: > 300 °C
[9]
  CC50: > 100 µM
[10]
  CC50: > 100 µM
[11]
  CC50: 0.07 ± 0.02 µM
[11]; ratio of CC50 of non-tumor cells (CRL 7065) and CC50 of tumor cells (CCRF-CEM)
  selectivity index (SI): 5.3
[13]
  CC50 at 96 h: 0.37 ± 0.04 µM

## O=C(O)/C=C/C(=O)Nc1ccc(-n2nnc3cc(Cl)c(Cl)cc32)cc1 [Compound 4d, (E)-4-((4-(5,6-Dichloro-1H-Benzo[d][1,2,3]Triazol-1-yl)phenyl)amino)-4-oxobut-2-enoic Acid]
[2]
  CC50: > 100 µM
[5]
  CC50: > 100 µM
[14]
  CC50: > 100 µM
[6]
  CC50: 0.51 ± 0.13 µM
[15]
  EC50: 10 µM
[7]
  CC50: > 100 µM
other
  melting point: 231 to 233 °C
[9]
  CC50: > 100 µM
[10]
  CC50: 64 ± 10 µM
[11]
  CC50: 3.3 ± 1.7 µM
[16]
  EC50: > 100 µM
[13]
  CC50 at 96 h: 1.7 ± 0.1 µM

## O=C(CCCC(=O)Nc1ccc(Cn2nnc3cc(Cl)c(Cl)cc32)cc1)Nc1ccc(Cn2nnc3cc(Cl)c(Cl)cc32)cc1 [Compound 9b, N ^1,N ^5-Bis(4-((5,6-Dichloro-1H-Benzo[d][1,2,3]Triazol-1-yl)methyl)phenyl)Glutaramide]
[2]
  CC50: 2.6 ± 0.7 µM
[5]
  CC50: 5.2 ± 0.4 µM
[14]
  CC50: 75 µM
[6]
  CC50: 8.5 ± 3.2 µM
[15]
  EC50: 52 µM
[7]
  CC50: 9.9 ± 3.1 µM
other
  melting point: 204 to 206 °C
[9]
  CC50: 5.4 ± 0.7 µM
[10]
  CC50: 23 ± 7 µM
[11]
  CC50: 5.5 ± 1.8 µM
[16]
  EC50: > 75 µM
[13]
  CC50 at 96 h: 6.7 ± 2.4 µM

## CC[C@]1(O)C[C@H]2CN(CCc3c([nH]c4ccccc34)[C@@](C(=O)OC)(c3cc4c(cc3OC)N(C=O)[C@H]3[C@@](O)(C(=O)OC)[C@H](OC(C)=O)[C@]5(CC)C=CCN6CC[C@]43[C@@H]65)C2)C1 [Vincristine, reference compound]
[2]
  CC50: > 4 µM
[5]
  CC50: 0.02 ± 0.01 µM
[6]
  CC50: 0.003 ± 0.001 µM
[7]
  CC50: 0.01 ± 0.02 µM
[9]
  CC50: 0.05 ± 0.02 µM
[10]
  CC50: 0.006 ± 0.002 µM
[11]
  CC50: 0.003 ± 0.001 µM
[13]
  CC50 at 96 h: > 4 µM

Reference: publication PMC8129498, “Synthesis, Antitumor and Antiviral In Vitro Activities of New Benzotriazole-Dicarboxamide Derivatives” (Frontiers in Chemistry, 2021)
